Test results taken from patent publication EP4745135A1 (Gluetacs Therapeutics (Shanghai) Co., Ltd., priority 2023, dated 2025).

Legend:
[1] = molecular target: T1, CK1α (Homo sapiens, UniProt P48729+Q96SW2); experiment: Western blot, degradation of substrate protein in hPBMCs; type: cell-based; conditions: Western blot, 24 hours of compound treatment, compounds tested at 50 nM and 500 nM (concentration for the table not stated)
T1 construct: effects of the compounds of the present disclosure on the expression of target proteins in cells; endogenous in cells; host or cells: human PBMCs (Milecell Biotechnologies)

[2] = molecular target: T2, IKZF1 (Homo sapiens, UniProt Q13422+Q96SW2); experiment: as above; type: cell-based; conditions: Western blot, 24 hours of compound treatment, compounds tested at 50 nM and 500 nM (concentration for the table not stated)
T2 construct: effects of the compounds of the present disclosure on the expression of target proteins in cells; endogenous in cells; host or cells: human PBMCs (Milecell Biotechnologies)

[3] = molecular target: T3, IKZF2 (Homo sapiens, UniProt Q96SW2+Q9UKS7); experiment: as above; type: cell-based; conditions: Western blot, 24 hours of compound treatment, compounds tested at 50 nM and 500 nM (concentration for the table not stated)
T3 construct: effects of the compounds of the present disclosure on the expression of target proteins in cells; endogenous in cells; host or cells: human PBMCs (Milecell Biotechnologies)

[4] = molecular target: T4, IKZF3 (Homo sapiens, UniProt Q96SW2+Q9UKT9); experiment: as above; type: cell-based; conditions: Western blot, 24 hours of compound treatment, compounds tested at 50 nM and 500 nM (concentration for the table not stated)
T4 construct: effects of the compounds of the present disclosure on the expression of target proteins in cells; endogenous in cells; host or cells: human PBMCs (Milecell Biotechnologies)

[5] = molecular target: T5, WEE1 (Homo sapiens, UniProt P30291+Q96SW2); experiment: as above; type: cell-based; conditions: Western blot, 24 hours of compound treatment, compounds tested at 50 nM and 500 nM (concentration for the table not stated)
T5 construct: effects of the compounds of the present disclosure on the expression of target proteins in cells; endogenous in cells; host or cells: human PBMCs (Milecell Biotechnologies)

[6] = tested on: GSPT1; experiment: as above; type: cell-based, Human; conditions: Western blot, 24 hours of compound treatment, compounds tested at 50 nM and 500 nM (concentration for the table not stated)
[7] = molecular target: T6, human Cereblon WT GST-tagged protein (Homo sapiens, UniProt Q96SW2); experiment: CRBN-binding affinity, HTRF (CEREBLON BINDING kit); conditions: for inhibition at 0.5 µM: read-out: Inhibition Rate at 0.5 µM (%); for inhibition at 2 µM: read-out: Inhibition Rate at 2 µM (%)
T6 construct: purchased CISBIO 64BDCRBNPEH

[8] = tested on: Human multiple myeloma cell (MM.1S); experiment: Tumor cell proliferation inhibition (CellTiter-Meiluncell luminescent cell viability assay); conditions: for inhibition at 0.01 µM / inhibition at 0.5 µM: Homo sapiens, MM1.S, 96 h; for inhibition at 0.01 µM: read-out: Inhibition Rate at 10 nM (%); for inhibition at 0.5 µM: read-out: Inhibition Rate at 500 nM (%)

T5 sequence (P30291 whole entry): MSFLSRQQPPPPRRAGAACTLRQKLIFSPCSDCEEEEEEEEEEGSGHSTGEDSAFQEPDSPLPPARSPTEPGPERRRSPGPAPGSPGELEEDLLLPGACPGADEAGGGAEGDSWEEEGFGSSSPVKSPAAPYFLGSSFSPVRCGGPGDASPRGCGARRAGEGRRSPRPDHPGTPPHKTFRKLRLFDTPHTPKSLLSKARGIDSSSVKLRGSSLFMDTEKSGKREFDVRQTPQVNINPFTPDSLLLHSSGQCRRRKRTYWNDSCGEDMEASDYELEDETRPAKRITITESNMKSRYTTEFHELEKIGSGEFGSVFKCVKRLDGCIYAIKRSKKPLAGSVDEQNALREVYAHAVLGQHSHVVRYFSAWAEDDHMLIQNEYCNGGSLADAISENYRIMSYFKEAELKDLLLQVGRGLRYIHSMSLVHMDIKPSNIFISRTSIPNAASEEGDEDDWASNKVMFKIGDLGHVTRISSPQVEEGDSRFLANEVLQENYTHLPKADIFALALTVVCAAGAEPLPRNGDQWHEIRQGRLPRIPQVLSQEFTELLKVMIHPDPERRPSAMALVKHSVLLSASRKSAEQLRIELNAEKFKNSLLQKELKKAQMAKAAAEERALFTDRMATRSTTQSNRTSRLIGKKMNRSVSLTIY
T5 sequence (Q96SW2 whole entry): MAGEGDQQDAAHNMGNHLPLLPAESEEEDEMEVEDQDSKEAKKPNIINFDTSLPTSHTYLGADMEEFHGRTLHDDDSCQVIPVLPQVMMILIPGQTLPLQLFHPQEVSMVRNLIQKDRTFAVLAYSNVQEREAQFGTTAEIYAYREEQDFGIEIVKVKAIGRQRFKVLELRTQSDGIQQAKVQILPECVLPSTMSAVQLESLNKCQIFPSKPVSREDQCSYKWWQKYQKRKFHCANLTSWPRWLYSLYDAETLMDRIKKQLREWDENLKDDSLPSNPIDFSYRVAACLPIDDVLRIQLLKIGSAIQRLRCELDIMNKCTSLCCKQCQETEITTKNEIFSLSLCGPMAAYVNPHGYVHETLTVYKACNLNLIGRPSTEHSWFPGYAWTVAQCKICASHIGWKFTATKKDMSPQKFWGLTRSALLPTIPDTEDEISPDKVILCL
T5 sequence (Q16531 whole entry partner): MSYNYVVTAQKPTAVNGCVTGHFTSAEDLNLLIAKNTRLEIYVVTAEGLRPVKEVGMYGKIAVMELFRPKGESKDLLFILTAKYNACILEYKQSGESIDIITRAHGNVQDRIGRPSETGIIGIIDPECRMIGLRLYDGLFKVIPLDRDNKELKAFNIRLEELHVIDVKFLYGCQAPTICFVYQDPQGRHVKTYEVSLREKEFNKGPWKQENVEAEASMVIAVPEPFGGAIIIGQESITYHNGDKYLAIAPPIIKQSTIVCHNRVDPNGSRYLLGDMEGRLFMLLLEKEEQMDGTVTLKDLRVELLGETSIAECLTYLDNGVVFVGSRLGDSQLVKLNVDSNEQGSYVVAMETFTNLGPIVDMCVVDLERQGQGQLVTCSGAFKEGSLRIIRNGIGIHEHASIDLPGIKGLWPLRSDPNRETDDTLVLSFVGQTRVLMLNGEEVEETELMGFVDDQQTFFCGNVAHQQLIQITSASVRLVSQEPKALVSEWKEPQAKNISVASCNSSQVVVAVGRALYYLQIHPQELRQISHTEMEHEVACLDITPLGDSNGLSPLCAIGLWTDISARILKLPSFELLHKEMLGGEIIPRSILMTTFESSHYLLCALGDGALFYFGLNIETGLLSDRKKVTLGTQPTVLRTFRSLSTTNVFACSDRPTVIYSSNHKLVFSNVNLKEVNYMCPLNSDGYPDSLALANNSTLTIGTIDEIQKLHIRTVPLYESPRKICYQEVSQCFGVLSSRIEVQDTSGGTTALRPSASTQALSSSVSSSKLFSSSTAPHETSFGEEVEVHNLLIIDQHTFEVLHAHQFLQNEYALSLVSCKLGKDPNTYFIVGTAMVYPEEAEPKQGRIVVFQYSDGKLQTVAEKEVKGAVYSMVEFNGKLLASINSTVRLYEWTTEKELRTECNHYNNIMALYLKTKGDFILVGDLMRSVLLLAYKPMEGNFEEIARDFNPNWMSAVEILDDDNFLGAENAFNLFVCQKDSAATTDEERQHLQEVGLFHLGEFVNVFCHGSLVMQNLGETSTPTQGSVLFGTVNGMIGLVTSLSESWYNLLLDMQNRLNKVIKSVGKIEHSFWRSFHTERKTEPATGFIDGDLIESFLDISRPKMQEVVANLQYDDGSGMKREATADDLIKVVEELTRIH
T3 sequence (Q9UKS7 whole entry): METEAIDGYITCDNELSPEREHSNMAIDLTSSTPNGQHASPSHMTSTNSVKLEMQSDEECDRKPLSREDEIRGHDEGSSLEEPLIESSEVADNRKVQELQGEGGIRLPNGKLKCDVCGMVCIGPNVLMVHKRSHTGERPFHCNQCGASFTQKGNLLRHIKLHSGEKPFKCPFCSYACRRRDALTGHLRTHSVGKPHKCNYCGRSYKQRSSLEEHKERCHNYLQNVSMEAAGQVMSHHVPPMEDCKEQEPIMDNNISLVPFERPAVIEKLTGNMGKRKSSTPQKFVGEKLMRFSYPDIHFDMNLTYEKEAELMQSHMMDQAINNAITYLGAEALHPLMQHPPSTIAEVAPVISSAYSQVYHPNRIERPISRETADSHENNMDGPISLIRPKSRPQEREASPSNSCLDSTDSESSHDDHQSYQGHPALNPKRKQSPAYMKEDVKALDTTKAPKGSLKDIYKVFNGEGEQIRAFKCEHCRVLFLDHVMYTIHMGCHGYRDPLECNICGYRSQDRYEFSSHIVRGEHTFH
T3 sequence (Q96SW2 whole entry): as the sequence (Q96SW2 whole entry) above
T3 sequence (Q16531 whole entry partner): as the sequence (Q16531 whole entry partner) above
T1 sequence (P48729 whole entry): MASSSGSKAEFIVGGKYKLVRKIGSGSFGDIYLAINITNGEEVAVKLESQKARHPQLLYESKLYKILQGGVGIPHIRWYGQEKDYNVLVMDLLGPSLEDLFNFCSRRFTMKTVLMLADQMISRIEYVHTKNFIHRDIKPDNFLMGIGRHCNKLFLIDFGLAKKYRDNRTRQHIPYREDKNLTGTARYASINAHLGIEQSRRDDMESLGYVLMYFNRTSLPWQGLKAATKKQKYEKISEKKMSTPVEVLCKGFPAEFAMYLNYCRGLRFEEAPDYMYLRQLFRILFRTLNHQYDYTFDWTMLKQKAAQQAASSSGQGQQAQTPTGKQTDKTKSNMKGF
T1 sequence (Q96SW2 whole entry): as the sequence (Q96SW2 whole entry) above
T1 sequence (Q16531 whole entry partner): as the sequence (Q16531 whole entry partner) above
T6 sequence (Q96SW2 whole entry): as the sequence (Q96SW2 whole entry) above
T4 sequence (Q9UKT9 whole entry): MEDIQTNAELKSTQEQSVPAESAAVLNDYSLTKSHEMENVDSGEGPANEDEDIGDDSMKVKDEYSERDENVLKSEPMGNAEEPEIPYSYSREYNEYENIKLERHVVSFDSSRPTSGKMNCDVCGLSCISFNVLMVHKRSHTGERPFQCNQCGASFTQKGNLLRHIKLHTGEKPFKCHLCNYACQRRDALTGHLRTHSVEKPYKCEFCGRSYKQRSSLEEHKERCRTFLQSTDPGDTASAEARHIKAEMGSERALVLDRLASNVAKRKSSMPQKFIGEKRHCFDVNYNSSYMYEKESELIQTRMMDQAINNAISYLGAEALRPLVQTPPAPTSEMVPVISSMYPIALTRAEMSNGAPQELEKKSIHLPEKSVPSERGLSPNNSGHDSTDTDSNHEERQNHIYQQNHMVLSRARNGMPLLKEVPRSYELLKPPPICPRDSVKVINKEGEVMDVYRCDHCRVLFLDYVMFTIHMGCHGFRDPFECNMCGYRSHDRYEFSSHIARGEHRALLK
T4 sequence (Q96SW2 whole entry): as the sequence (Q96SW2 whole entry) above
T4 sequence (Q16531 whole entry partner): as the sequence (Q16531 whole entry partner) above
T2 sequence (Q13422 whole entry): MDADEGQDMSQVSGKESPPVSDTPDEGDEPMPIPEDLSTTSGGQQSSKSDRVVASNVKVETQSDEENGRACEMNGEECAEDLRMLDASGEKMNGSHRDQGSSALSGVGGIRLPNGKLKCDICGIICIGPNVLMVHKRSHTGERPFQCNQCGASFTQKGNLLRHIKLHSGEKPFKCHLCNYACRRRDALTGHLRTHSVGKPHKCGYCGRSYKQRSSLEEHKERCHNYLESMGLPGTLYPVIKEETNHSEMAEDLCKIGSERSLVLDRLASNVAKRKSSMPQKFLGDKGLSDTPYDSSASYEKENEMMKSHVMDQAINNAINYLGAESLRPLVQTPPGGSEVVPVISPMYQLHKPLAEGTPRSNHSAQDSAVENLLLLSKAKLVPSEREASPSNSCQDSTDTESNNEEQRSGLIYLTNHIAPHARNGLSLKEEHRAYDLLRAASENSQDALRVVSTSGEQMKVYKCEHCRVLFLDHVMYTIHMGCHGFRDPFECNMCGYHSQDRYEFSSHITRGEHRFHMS
T2 sequence (Q96SW2 whole entry): as the sequence (Q96SW2 whole entry) above
T2 sequence (Q16531 whole entry partner): as the sequence (Q16531 whole entry partner) above

Row | SMILES | CK1α substrate protein remaining % [1] | IKZF 1 substrate protein remaining % [2] | IKZF2 substrate protein remaining % [3] | IKZF3 substrate protein remaining % [4] | Wee1 substrate protein remaining % [5] | GSPT1 substrate protein remaining % [6] | inhibition at 0.5 µM [7] | inhibition at 2 µM [7] | inhibition at 0.01 µM [8] | inhibition at 0.5 µM [8] | Inhibition Rate at 500 nM (%) ([8]; MM.1S, 96 hours) | Inhibition Rate at 10 nM (%) ([8]; MM.1S, 10 nM, 96 hours)
1 | O=C1CCC(N2Cc3cc(CN4CCN(c5ccccc5Cl)CC4)ccc3C2=S)C(=O)N1 (stereo not drawn) [GT-08241, 3-(5-((4-(2-chlorophenyl)piperazin-1-yl)methyl)-1-thioxoisoindolin-2-yl)piperidine-2,6-dione] | B (80%< substrate protein remaining %≤ 100%) | B (80%< substrate protein remaining %≤ 100%) | B (80%< substrate protein remaining %≤ 100%) | B (80%< substrate protein remaining %≤ 100%) | B (80%< substrate protein remaining %≤ 100%) | A (0% ≤ substrate protein remaining % ≤ 80%) | 40 to 53% | 80 to 100% | 20 to 30% | 70 to 80% |  | 
2 | O=C1CCC(N2Cc3cc(CN4CCN(c5ccccc5Br)CC4)ccc3C2=S)C(=O)N1 (stereo not drawn) [GT-08242, 3-(5-((4-(2-bromophenyl)piperazin-1-yl)methyl)-1-thioxoisoindolin-2-yl)piperidine-2,6-dione] | B (80%< substrate protein remaining %≤ 100%) | B (80%< substrate protein remaining %≤ 100%) | B (80%< substrate protein remaining %≤ 100%) | B (80%< substrate protein remaining %≤ 100%) | B (80%< substrate protein remaining %≤ 100%) | A (0% ≤ substrate protein remaining % ≤ 80%) | 40 to 53% | 80 to 100% | 30 to 40% |  | la8 | 
3 | O=C1CCC(N2Cc3c(CN4CC=C(c5ncccc5F)CC4)cccc3C2=S)C(=O)N1 (stereo not drawn) [GT-08463, 3-(4-((3-fluoro-3',6'-dihydro-[2,4'-bipyridin]-1'(2'H)-yl)methyl)-1-thioxoisoindolin-2-yl)piperidine-2,6-dione] | B (80%< substrate protein remaining %≤ 100%) | B (80%< substrate protein remaining %≤ 100%) | B (80%< substrate protein remaining %≤ 100%) | B (80%< substrate protein remaining %≤ 100%) | A (0% ≤ substrate protein remaining % ≤ 80%) | A (0% ≤ substrate protein remaining % ≤ 80%) | 53 to 60% | 60 to 80% | 40 to 50% |  | la5 | 
4 | O=C1CCC(N2Cc3c(CN4CC=C(c5ccnc(F)c5F)CC4)cccc3C2=S)C(=O)N1 (stereo not drawn) [GT-08464, 3-(4-((2',3'-difluoro-3,6-dihydro-[4,4'-bipyridin]-1(2H)-yl)methyl)-1-thioxoisoindolin-2-yl)piperidine-2,6-dione] | B (80%< substrate protein remaining %≤ 100%) | B (80%< substrate protein remaining %≤ 100%) | B (80%< substrate protein remaining %≤ 100%) | B (80%< substrate protein remaining %≤ 100%) | A (0% ≤ substrate protein remaining % ≤ 80%) | A (0% ≤ substrate protein remaining % ≤ 80%) | 60 to 80% | 60 to 80% | 50 to 60% |  | la5 | 
5 | O=C1CCC(N2Cc3c(CN4C5CC4CN(c4cccc(Cl)c4Cl)C5)cccc3C2=S)C(=O)N1 (stereo not drawn) [GT-08465, 3-(4-((3-(2,3-dichlorophenyl)-3,6-diazabicyclo[3.1.1]heptan-6-yl)methyl)-1-thioxoisoindolin-2-yl)piperidine-2,6-dione] | B (80%< substrate protein remaining %≤ 100%) | B (80%< substrate protein remaining %≤ 100%) | B (80%< substrate protein remaining %≤ 100%) | B (80%< substrate protein remaining %≤ 100%) | B (80%< substrate protein remaining %≤ 100%) | A (0% ≤ substrate protein remaining % ≤ 80%) | 40 to 53% | 60 to 80% | 40 to 50% |  | la5 | 
6 | O=C1CCC(N2Cc3c(CN4CC5CC(C4)N5c4cccc(Cl)c4Cl)cccc3C2=S)C(=O)N1 (stereo not drawn) [GT-08466, 3-(4-((6-(2,3-dichlorophenyl)-3,6-diazabicyclo[3.1.1]heptan-3-yl)methyl)-1-thioxoisoindolin-2-yl)piperidine-2,6-dione] | B (80%< substrate protein remaining %≤ 100%) | B (80%< substrate protein remaining %≤ 100%) | A (0% ≤ substrate protein remaining % ≤ 80%) | B (80%< substrate protein remaining %≤ 100%) | B (80%< substrate protein remaining %≤ 100%) | A (0% ≤ substrate protein remaining % ≤ 80%) | 30 to 40% | 60 to 80% | 20 to 30% |  | la7 | 
7 | O=C1CCC(N2Cc3cc(CN4CC5CC(C4)N5c4cccc(Cl)c4Cl)ccc3C2=S)C(=O)N1 (stereo not drawn) [GT-08476, 3-(5-((6-(2,3-dichlorophenyl)-3,6-diazabicyclo[3.1.1]heptan-3-yl)methyl)-1-thioxoisoindolin-2-yl)piperidine-2,6-dione] | B (80%< substrate protein remaining %≤ 100%) | B (80%< substrate protein remaining %≤ 100%) | B (80%< substrate protein remaining %≤ 100%) | A (0% ≤ substrate protein remaining % ≤ 80%) | B (80%< substrate protein remaining %≤ 100%) | B (80%< substrate protein remaining %≤ 100%) | 60 to 80% | 80 to 100% | 5 to 10% | 40 to 50% |  | 
8 | O=C1CCC(N2Cc3cc(CN4C[C@H]5C[C@@H]4CN5c4cccc(Cl)c4Cl)ccc3C2=S)C(=O)N1 (stereo partly drawn) [GT-08477, 3-(5-(((1R,4R)-5-(2,3-dichlorophenyl)-2,5-diazabicyclo[2.2.1]heptan-2-yl)methyl)-1-thioxoisoindolin-2-yl)piperidine-2,6-dione] | B (80%< substrate protein remaining %≤ 100%) | B (80%< substrate protein remaining %≤ 100%) | B (80%< substrate protein remaining %≤ 100%) | A (0% ≤ substrate protein remaining % ≤ 80%) | B (80%< substrate protein remaining %≤ 100%) | A (0% ≤ substrate protein remaining % ≤ 80%) | 53 to 60% | 80 to 100% |  | 40 to 50% |  | la5
9 | O=C1CCC(N2Cc3cc(CN4CC5CCC4CN5c4cccc(Cl)c4Cl)ccc3C2=S)C(=O)N1 (stereo not drawn) [GT-08478, 3-(5-((5-(2,3-dichlorophenyl)-2,5-diazabicyclo[2.2.2]octan-2-yl)methyl)-1-thioxoisoindolin-2-yl)piperidine-2,6-dione] | B (80%< substrate protein remaining %≤ 100%) | B (80%< substrate protein remaining %≤ 100%) | B (80%< substrate protein remaining %≤ 100%) | B (80%< substrate protein remaining %≤ 100%) | B (80%< substrate protein remaining %≤ 100%) | A (0% ≤ substrate protein remaining % ≤ 80%) | 40 to 53% | 80 to 100% | 40 to 50% | 50 to 60% |  | 
